5 compounds from US20260001928A1 (CORTERIA PHARMACEUTICALS, priority 2022, published 2026) can be followed below.

*1 amine or outer side, *2 acyl side, *3 side chain or, on linkers, in order; H or OH if unused. Where a SMILES comes first, the peptide text is derived from it. Side-chain parts run from the residue outwards. [ ]: non-standard residue; d: D form. The star is where a group is joined. C18 diacid = O=C(O)CCCCCCCCCCCCCCCCC(=O)*; γGlu = O=C(O)[C@H](CCC(=O)[*:2])N[*:1]; C12 diacid = O=C(O)CCCCCCCCCCC(=O)*; NMeI = CC[C@H](C)[C@H](NC)C(=O)O; Pentanoyl = CCCCC(=O)*; Aib = CC(C)(N)C(=O)O Where only a bound is given, the exact number is not on record here.

The target in one test is T1, human CRF2a receptor (Homo sapiens, UniProt Q13324).
T1 construct: expressed in transfected cells; host or cells: TeloHEAC cells
T1 sequence (Q13324 1-411): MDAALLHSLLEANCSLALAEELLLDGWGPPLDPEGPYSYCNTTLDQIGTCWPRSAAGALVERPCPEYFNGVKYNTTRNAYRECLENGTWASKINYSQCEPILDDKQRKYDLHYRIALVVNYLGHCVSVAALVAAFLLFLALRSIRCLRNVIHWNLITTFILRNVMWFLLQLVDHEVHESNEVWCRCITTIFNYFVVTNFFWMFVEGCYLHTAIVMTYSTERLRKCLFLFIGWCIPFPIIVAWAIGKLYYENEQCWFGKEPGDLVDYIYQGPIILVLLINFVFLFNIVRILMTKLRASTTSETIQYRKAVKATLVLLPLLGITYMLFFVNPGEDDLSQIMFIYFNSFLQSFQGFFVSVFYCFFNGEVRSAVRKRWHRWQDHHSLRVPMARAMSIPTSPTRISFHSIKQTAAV
The test can be described thus: Activity at human CRF2a receptor, cAMP functional assay in TeloHEAC cells. To be noted: TeloHEAC cells stably expressing human CRF2a receptor, relative to urocortin 2 (100 nM = 100%). Format: cell-based. An outline of the steps:
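cAMP accumulation was measured by HTRF 665/620 nm ratio after 30 min at 37° C compound exposure (16 twofold dilutions) of CRF2a-expressing TeloHEAC cells, 10000/well, in HEPES-buffered HBSS plus IBMX. Activity was normalised to urocortin 2 at 100 nM (100%), and EC50 was the concentration giving half-maximal activation.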

A further test addresses T2, CFR1R receptor (Homo sapiens, UniProt P34998).
T2 construct: host or cells: CHO-K1 (clone 2)
T2 sequence (P34998 24-415): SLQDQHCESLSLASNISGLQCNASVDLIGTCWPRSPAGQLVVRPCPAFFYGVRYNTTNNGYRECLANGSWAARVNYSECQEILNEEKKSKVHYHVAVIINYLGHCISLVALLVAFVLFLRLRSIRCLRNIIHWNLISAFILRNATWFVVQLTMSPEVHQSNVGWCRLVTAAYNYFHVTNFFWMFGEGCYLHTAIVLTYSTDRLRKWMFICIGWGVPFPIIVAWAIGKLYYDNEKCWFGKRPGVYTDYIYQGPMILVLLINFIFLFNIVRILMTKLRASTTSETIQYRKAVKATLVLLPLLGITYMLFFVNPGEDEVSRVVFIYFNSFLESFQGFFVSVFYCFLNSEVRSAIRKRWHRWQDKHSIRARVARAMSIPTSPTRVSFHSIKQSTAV
The test can be described thus: Activity at anti-target CFR1R receptor, cAMP assay in CRF1R-overexpression CHO-K1 cells. Format: cell-based. To be noted: 100% = Sauvagine at 100 nM; for EC50: cAMP. An outline of the steps: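 Run as for the TeloHAEC line, except the full-activation control well received Sauvagine (100 nM) and final density was 4000 cells/well. Cells from clone 2 came from frozen aliquots of near-confluent cultures.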

As to `CCCCC(=O)N[C@H](C(=O)N[C@@H](CC(C)C)C(=O)N[C@@H](CO)C(=O)N[C@@H](CC(C)C)C(=O)N[C@@H](CC(=O)O)C(=O)N[C@@H](C(=O)N1CCC[C@H]1C(=O)N[C@H](C(=O)N[C@@H](CCCCN)C(=O)N[C@@H](CC(C)C)C(=O)N[C@@H](CCCCNC(=O)CC[C@H](NC(=O)CCCCCCCCCCC(=O)O)C(=O)O)C(=O)N[C@@H](CCCCN)C(=O)N[C@H](C(=O)N[C@@H](CC(C)C)C(=O)N[C@@H](CC(C)C)C(=O)N[C@@H](CCC(=O)O)C(=O)N[C@@H](CCC(N)=O)C(=O)N[C@@H](CCC(=O)O)C(=O)N[C@@H](CCCCN)C(=O)N[C@@H](CCC(N)=O)C(=O)N[C@@H](CCCCN)C(=O)N[C@@H](CCCCN)C(=O)N[C@@H](CCC(N)=O)C(=O)N[C@@H](CCCNC(=N)N)C(=O)N[C@@H](CCC(=O)O)C(=O)N[C@@H](CCC(N)=O)C(=O)N[C@@H](C)C(=O)N[C@@H](CCC(=O)O)C(=O)N[C@H](C(=O)N[C@@H](CC(N)=O)C(=O)NC(C)(C)C(=O)N[C@@H](CCC(N)=O)C(=O)N[C@H](C(=O)N[C@@H](CC(C)C)C(=O)N[C@@H](C)C(=O)N[C@@H](CCC(N)=O)C(=O)N[C@H](C(N)=O)C(C)C)[C@@H](C)CC)[C@@H](C)O)[C@@H](C)CC)[C@@H](C)CC)C(C)C)C(C)C` [compound 185] (Pentanoyl-VLSLD[dV]PIKLK([γGlu-C12 diacid])KILLEQEKQKKQREQAETN[Aib]QILAQV-NH2), the EC50 (in general, the concentration giving half of the maximal effect) at human CRF2a receptor was 3.54 nM. For the same compound, at CFR1R receptor, the “Emax (% I)” value worked out at 2 % I and the EC50 is above 250 nM.
For `CC[C@H](C)[C@H](NC)C(=O)N[C@H](C(=O)N[C@@H](CC(C)C)C(=O)N[C@@H](CO)C(=O)N[C@@H](CC(C)C)C(=O)N[C@@H](CC(=O)O)C(=O)N[C@@H](C(=O)N1CCC[C@H]1C(=O)N[C@H](C(=O)N[C@@H](CCCCN)C(=O)N[C@@H](CC(C)C)C(=O)N[C@@H](CCCCNC(=O)CC[C@H](NC(=O)CCCCCCCCCCC(=O)O)C(=O)O)C(=O)N[C@@H](CCCCN)C(=O)N[C@H](C(=O)N[C@@H](CC(C)C)C(=O)N[C@@H](CC(C)C)C(=O)N[C@@H](CCC(=O)O)C(=O)N[C@@H](CCC(N)=O)C(=O)N[C@@H](CCC(=O)O)C(=O)N[C@@H](CCCCN)C(=O)N[C@@H](CCC(N)=O)C(=O)N[C@@H](CCCCN)C(=O)N[C@@H](CCCCN)C(=O)N[C@@H](CCC(N)=O)C(=O)N[C@@H](CCCNC(=N)N)C(=O)N[C@@H](CCC(=O)O)C(=O)N[C@@H](CCC(N)=O)C(=O)N[C@@H](C)C(=O)N[C@@H](CCC(=O)O)C(=O)N[C@H](C(=O)N[C@@H](CC(N)=O)C(=O)NC(C)(C)C(=O)N[C@@H](CCC(N)=O)C(=O)N[C@H](C(=O)N[C@@H](CC(C)C)C(=O)N[C@@H](C)C(=O)N[C@@H](CCC(N)=O)C(=O)N[C@H](C(N)=O)C(C)C)[C@@H](C)CC)[C@@H](C)O)[C@@H](C)CC)[C@@H](C)CC)C(C)C)C(C)C` [compound 186] (H-[NMeI]VLSLD[dV]PIKLK([γGlu-C12 diacid])KILLEQEKQKKQREQAETN[Aib]QILAQV-NH2), in that order: 0.79 nM, 2 % I and above 250 nM.
For `CC[C@H](C)[C@H](NC(C)=O)C(=O)N[C@H](C(=O)N[C@@H](CC(C)C)C(=O)N[C@@H](CO)C(=O)N[C@@H](CC(C)C)C(=O)N[C@@H](CC(=O)O)C(=O)N[C@@H](C(=O)N1CCC[C@H]1C(=O)N[C@H](C(=O)NCC(=O)N[C@@H](CC(C)C)C(=O)N[C@@H](CCCCNC(=O)CC[C@H](NC(=O)CCCCCCCCCCCCCCCCC(=O)O)C(=O)O)C(=O)N[C@@H](CCCCN)C(=O)N[C@H](C(=O)N[C@@H](CC(C)C)C(=O)N[C@@H](CC(C)C)C(=O)N[C@@H](CCC(=O)O)C(=O)N[C@@H](CCC(N)=O)C(=O)N[C@@H](CCC(=O)O)C(=O)N[C@@H](CCCCN)C(=O)N[C@@H](CCC(N)=O)C(=O)N[C@@H](CCCCN)C(=O)N[C@@H](CCCCN)C(=O)N[C@@H](CCC(N)=O)C(=O)N[C@@H](CCCNC(=N)N)C(=O)N[C@@H](CCC(=O)O)C(=O)N[C@@H](CCC(N)=O)C(=O)N[C@@H](C)C(=O)N[C@@H](CCC(=O)O)C(=O)N[C@H](C(=O)N[C@@H](CC(N)=O)C(=O)NC(C)(C)C(=O)N[C@@H](CCC(N)=O)C(=O)N[C@H](C(=O)N[C@@H](CC(C)C)C(=O)N[C@@H](C)C(=O)N[C@@H](CCC(N)=O)C(=O)N[C@H](C(N)=O)C(C)C)[C@@H](C)CC)[C@@H](C)O)[C@@H](C)CC)[C@@H](C)CC)C(C)C)C(C)C` [compound 191] (Ac-IVLSLD[dV]PIGLK([γGlu-C18 diacid])KILLEQEKQKKQREQAETN[Aib]QILAQV-NH2), the EC50 at human CRF2a receptor was determined as 0.18 nM. In addition, the “Emax (% I)” value at CFR1R receptor was determined as 54 % I.
For `CC[C@H](C)[C@H](NC)C(=O)N[C@H](C(=O)N[C@@H](CC(C)C)C(=O)N[C@@H](CO)C(=O)N[C@@H](CC(C)C)C(=O)N[C@@H](CC(=O)O)C(=O)N[C@@H](C(=O)N1CCC[C@H]1C(=O)N[C@H](C(=O)NCC(=O)N[C@@H](CC(C)C)C(=O)N[C@@H](CCCCNC(=O)CC[C@H](NC(=O)CCCCCCCCCCCCCCCCC(=O)O)C(=O)O)C(=O)N[C@@H](CCCCN)C(=O)N[C@H](C(=O)N[C@@H](CC(C)C)C(=O)N[C@@H](CC(C)C)C(=O)N[C@@H](CCC(=O)O)C(=O)N[C@@H](CCC(N)=O)C(=O)N[C@@H](CCC(=O)O)C(=O)N[C@@H](CCCCN)C(=O)N[C@@H](CCC(N)=O)C(=O)N[C@@H](CCCCN)C(=O)N[C@@H](CCCCN)C(=O)N[C@@H](CCC(N)=O)C(=O)N[C@@H](CCCNC(=N)N)C(=O)N[C@@H](CCC(=O)O)C(=O)N[C@@H](CCC(N)=O)C(=O)N[C@@H](C)C(=O)N[C@@H](CCC(=O)O)C(=O)N[C@H](C(=O)N[C@@H](CC(N)=O)C(=O)NC(C)(C)C(=O)N[C@@H](CCC(N)=O)C(=O)N[C@H](C(=O)N[C@@H](CC(C)C)C(=O)N[C@@H](C)C(=O)N[C@@H](CCC(N)=O)C(=O)N[C@H](C(N)=O)C(C)C)[C@@H](C)CC)[C@@H](C)O)[C@@H](C)CC)[C@@H](C)CC)C(C)C)C(C)C` [compound 192] (H-[NMeI]VLSLD[dV]PIGLK([γGlu-C18 diacid])KILLEQEKQKKQREQAETN[Aib]QILAQV-NH2), a half-maximal effect on human CRF2a receptor (EC50) was put at 0.11 nM. At CFR1R receptor, the “Emax (% I)” value was found to be 19 % I and the EC50 is above 250 nM.
Turning to `CCCCC(=O)N[C@H](C(=O)N[C@@H](CC(C)C)C(=O)N[C@@H](CO)C(=O)N[C@@H](CC(C)C)C(=O)N[C@@H](CC(=O)O)C(=O)N[C@@H](C(=O)N1CCC[C@H]1C(=O)N[C@H](C(=O)NCC(=O)N[C@@H](CC(C)C)C(=O)N[C@@H](CCCCNC(=O)CC[C@H](NC(=O)CCCCCCCCCCCCCCCCC(=O)O)C(=O)O)C(=O)N[C@@H](CCCCN)C(=O)N[C@H](C(=O)N[C@@H](CC(C)C)C(=O)N[C@@H](CC(C)C)C(=O)N[C@@H](CCC(=O)O)C(=O)N[C@@H](CCC(N)=O)C(=O)N[C@@H](CCC(=O)O)C(=O)N[C@@H](CCCCN)C(=O)N[C@@H](CCC(N)=O)C(=O)N[C@@H](CCCCN)C(=O)N[C@@H](CCCCN)C(=O)N[C@@H](CCC(N)=O)C(=O)N[C@@H](CCCNC(=N)N)C(=O)N[C@@H](CCC(=O)O)C(=O)N[C@@H](CCC(N)=O)C(=O)N[C@@H](C)C(=O)N[C@@H](CCC(=O)O)C(=O)N[C@H](C(=O)N[C@@H](CC(N)=O)C(=O)NC(C)(C)C(=O)N[C@@H](CCC(N)=O)C(=O)N[C@H](C(=O)N[C@@H](CC(C)C)C(=O)N[C@@H](C)C(=O)N[C@@H](CCC(N)=O)C(=O)N[C@H](C(N)=O)C(C)C)[C@@H](C)CC)[C@@H](C)O)[C@@H](C)CC)[C@@H](C)CC)C(C)C)C(C)C` [compound 195] (Pentanoyl-VLSLD[dV]PIGLK([γGlu-C18 diacid])KILLEQEKQKKQREQAETN[Aib]QILAQV-NH2), it took 0.21 nM to reach a half-maximal effect on human CRF2a receptor (EC50). In addition, the “Emax (% I)” value at CFR1R receptor is on record as 42 % I.
